Results from patent publication US9963442B2, “Pyridones as herbicides” (E I DU PONT DE NEMOURS AND COMPANY, priority 2014, dated 2018).

Assays:
Type in all cases: in vivo
rice (Oryza sativa) = test: Test B flooded paddy test; parameters: key: 0 = no effect, 100 = complete control; details: Flood, 250 g ai/ha applied to paddy water at 2-leaf stage; visually evaluated after 13 to 15 days; scale 0 (no effect) to 100 (complete control)
Method in brief: (§1)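 2-leaf plants; flood 3 cm over soil; compound into paddy water; depth held. Greenhouse 13–15 d. Visual rating vs controls, 0 (no effect) to 100 (complete control); dash = not tested.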

[1] = system: sedge, umbrella (small-flower umbrella sedge, Cyperus difformis); test: Test B flooded paddy test; parameters: key: 0 = no effect, 100 = complete control; details: Flood, 250 g ai/ha applied to paddy water at 2-leaf stage; visually evaluated after 13 to 15 days; scale 0 (no effect) to 100 (complete control)
Method in brief: as §1

[2] = system: blackgrass (Alopecurus myosuroides); test: Test A postemergence application; details: approx. 10 days
Method in brief: (§2)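 Ratings reflect visual injury compared with untreated controls roughly 10 days after treatment, scored 0 (no effect) to 100 (complete control). Applications were preemergence soil sprays or postemergence sprays on young one- to two-leaf plants.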

[3] = system: galium (catchweed bedstraw, Galium aparine); test: Test A postemergence application; details: approx. 10 days
Method in brief: as §2

[4] = system: ragweed (common ragweed, Ambrosia elatior); test: Test A postemergence application; details: approx. 10 days
Method in brief: as §2

[5] = system: wheat (Triticum aestivum); test: Test A postemergence application; details: approx. 10 days
Method in brief: as §2

kochia (Kochia scoparia) [6] = test: Test A postemergence application; details: approx. 10 days
Method in brief: as §2

[7] = system: barnyardgrass (Echinochloa crus-galli); test: Test A postemergence application; details: approx. 10 days
Method in brief: as §2

[8] = system: pigweed (Amaranthus retroflexus); test: Test A postemergence application; details: approx. 10 days
Method in brief: as §2

corn (Zea mays) = test: Test A postemergence application; details: approx. 10 days
Method in brief: as §2

[9] = system: Italian ryegrass (Lolium multiflorum); test: Test A postemergence application; details: approx. 10 days
Method in brief: as §2

[10] = system: giant foxtail (Setaria faberii); test: Test A postemergence application; details: approx. 10 days
Method in brief: as §2

[11] = system: ragweed (common ragweed, Ambrosia elatior); test: Test A preemergence, directed soil spray; details: approx. 10 days
Method in brief: as §2

kochia (Kochia scoparia) [12] = test: Test A preemergence, directed soil spray; details: approx. 10 days
Method in brief: as §2

[13] = system: barnyardgrass (Echinochloa crus-galli); test: Test A preemergence, directed soil spray; details: approx. 10 days
Method in brief: as §2

[14] = system: pigweed (Amaranthus retroflexus); test: Test A preemergence, directed soil spray; details: approx. 10 days
Method in brief: as §2

[15] = system: Italian ryegrass (Lolium multiflorum); test: Test A preemergence, directed soil spray; details: approx. 10 days
Method in brief: as §2

[16] = system: giant foxtail (Setaria faberii); test: Test A preemergence, directed soil spray; details: approx. 10 days
Method in brief: as §2

[17] = system: lambsquarters (Chenopodium album); test: Test C postemergence; details: scale 0 to 100, 0 is no effect, 100 is complete control
Text: (§3) Seeds of plant species selected from blackgrass (Alopecurus myosuroides), Italian ryegrass (Lolium multiflorum), winter wheat (Triticum aestivum), galium (catchweed bedstraw, Galium aparine), corn (Zea mays), large (Lg) crabgrass (Digitaria sanguinalis), giant foxtail (Setaria faberii), johnsongrass (Sorghum halepense), lambsquarters (Chenopodium album), morningglory (Ipomoea coccinea), yellow nutsedge (Cyperus esculentus), pigweed (Amaranthus retroflexus), ragweed (common ragweed, Ambrosia elatior), soybean (Glycine max), barnyardgrass (Echinochloa crus-galli), oilseed rape (Brassica napus), waterhemp (common waterhemp, Amaranthus rudis), and velvetleaf (Abutilon theophrasti) were planted into a blend of loam soil and sand and treated preemergence with test chemicals formulated in a non-phytotoxic solvent mixture which included a surfactant. At the same time, plants selected from these crop and weed species and also chickweed (common chickweed, Stellaria media), kochia (Kochia scoparia), and wild oat (Avena fatua), were planted in pots containing Sunshine Redi-Earth® planting medium comprising spaghnum peat moss, vermiculite, starter nutrients and dolomitic limestone and treated with postemergence applications of test chemicals formulated in the same manner. Plants ranged in height from 2 to 18 cm (1- to 4-leaf stage) for postemergence treatments. Treated plants and controls were maintained in a greenhouse for 13 to 15 days, after which time all species were compared to controls and visually evaluated. Plant response ratings, summarized in Table C, are based on a scale of 0 to 100 where 0 is no effect and 100 is complete control. A dash (-) response means no test result.

soybean (Glycine max) = test: Test C postemergence; details: scale 0 to 100, 0 is no effect, 100 is complete control
Text: as §3

wild oat (Avena fatua) = test: Test C postemergence; details: scale 0 to 100, 0 is no effect, 100 is complete control
Text: as §3

## O=c1cccc(Oc2ncc(Cl)cn2)n1-c1ccc(Cl)cc1 [Compound 1, 1-(4-chlorophenyl)-6-[(5-chloro-2-pyrimidinyl)oxy]-2(1H)-pyridinone]
Rice (Oryza sativa)
  Plant response rating, Rice: 10
[1]
  Plant response rating, Sedge, Umbrella: 65
[2]; 125 g ai/ha
  Plant response rating (0 to 100 scale, 0 no effect, 100 complete control), Blackgrass: 20
[2]; 500 g ai/ha
  Plant response rating (0 to 100 scale, 0 no effect, 100 complete control), Blackgrass: 90
[3]; 125 g ai/ha
  Plant response rating (0 to 100 scale, 0 no effect, 100 complete control), Galium: 50
[3]; 500 g ai/ha
  Plant response rating (0 to 100 scale, 0 no effect, 100 complete control), Galium: 100
[4]; 125 g ai/ha
  Plant response rating (0 to 100 scale, 0 no effect, 100 complete control), Ragweed: 20
[4]; 500 g ai/ha
  Plant response rating (0 to 100 scale, 0 no effect, 100 complete control), Ragweed: 20
[5]; 125 g ai/ha
  Plant response rating (0 to 100 scale, 0 no effect, 100 complete control), Wheat: 30
[5]; 500 g ai/ha
  Plant response rating (0 to 100 scale, 0 no effect, 100 complete control), Wheat: 40
Kochia (Kochia scoparia) [6]; 125 g ai/ha
  Plant response rating (0 to 100 scale, 0 no effect, 100 complete control), Kochia: 90
Kochia (Kochia scoparia) [6]; 500 g ai/ha
  Plant response rating (0 to 100 scale, 0 no effect, 100 complete control), Kochia: 100
[7]; 125 g ai/ha
  Plant response rating (0 to 100 scale, 0 no effect, 100 complete control), Barnyardgrass: 20
[7]; 500 g ai/ha
  Plant response rating (0 to 100 scale, 0 no effect, 100 complete control), Barnyardgrass: 100
[8]; 125 g ai/ha
  Plant response rating (0 to 100 scale, 0 no effect, 100 complete control), Pigweed: 100
[8]; 500 g ai/ha
  Plant response rating (0 to 100 scale, 0 no effect, 100 complete control), Pigweed: 100
Corn (Zea mays); 125 g ai/ha
  Plant response rating (0 to 100 scale, 0 no effect, 100 complete control), Corn: 30
Corn (Zea mays); 500 g ai/ha
  Plant response rating (0 to 100 scale, 0 no effect, 100 complete control), Corn: 30
[9]; 125 g ai/ha
  Plant response rating (0 to 100 scale, 0 no effect, 100 complete control), Ryegrass, Italian: 0
[9]; 500 g ai/ha
  Plant response rating (0 to 100 scale, 0 no effect, 100 complete control), Ryegrass, Italian: 70
[10]; 125 g ai/ha
  Plant response rating (0 to 100 scale, 0 no effect, 100 complete control), Foxtail, Giant: 70
[10]; 500 g ai/ha
  Plant response rating (0 to 100 scale, 0 no effect, 100 complete control), Foxtail, Giant: 100
[11]; 125 g ai/ha
  Plant response rating (0 to 100 scale, 0 no effect, 100 complete control), Ragweed: 0
[11]; 500 g ai/ha
  Plant response rating (0 to 100 scale, 0 no effect, 100 complete control), Ragweed: 20
Kochia (Kochia scoparia) [12]; 125 g ai/ha
  Plant response rating (0 to 100 scale, 0 no effect, 100 complete control), Kochia: 40
Kochia (Kochia scoparia) [12]; 500 g ai/ha
  Plant response rating (0 to 100 scale, 0 no effect, 100 complete control), Kochia: 100
[13]; 125 g ai/ha
  Plant response rating (0 to 100 scale, 0 no effect, 100 complete control), Barnyardgrass: 30
[13]; 500 g ai/ha
  Plant response rating (0 to 100 scale, 0 no effect, 100 complete control), Barnyardgrass: 100
[14]; 125 g ai/ha
  Plant response rating (0 to 100 scale, 0 no effect, 100 complete control), Pigweed: 40
[14]; 500 g ai/ha
  Plant response rating (0 to 100 scale, 0 no effect, 100 complete control), Pigweed: 100
[15]; 125 g ai/ha
  Plant response rating (0 to 100 scale, 0 no effect, 100 complete control), Ryegrass, Italian: 0
[15]; 500 g ai/ha
  Plant response rating (0 to 100 scale, 0 no effect, 100 complete control), Ryegrass, Italian: 20
[16]; 125 g ai/ha
  Plant response rating (0 to 100 scale, 0 no effect, 100 complete control), Foxtail, Giant: 90
[16]; 500 g ai/ha
  Plant response rating (0 to 100 scale, 0 no effect, 100 complete control), Foxtail, Giant: 100
[17]; 16 g ai/ha
  Plant response rating, Lambsquarters: 15
[17]; 31 g ai/ha
  Plant response rating, Lambsquarters: 15
[17]; 62 g ai/ha
  Plant response rating, Lambsquarters: 45
[17]; 125 g ai/ha
  Plant response rating, Lambsquarters: 55
Soybean (Glycine max); 16 g ai/ha
  Plant response rating, Soybean: 15
Soybean (Glycine max); 31 g ai/ha
  Plant response rating, Soybean: 35
Soybean (Glycine max); 62 g ai/ha
  Plant response rating, Soybean: 30
Soybean (Glycine max); 125 g ai/ha
  Plant response rating, Soybean: 70
Wild oat (Avena fatua); 16 g ai/ha
  Plant response rating, Oat, Wild: 5
Wild oat (Avena fatua); 31 g ai/ha
  Plant response rating, Oat, Wild: 5
Wild oat (Avena fatua); 62 g ai/ha
  Plant response rating, Oat, Wild: 5
Wild oat (Avena fatua); 125 g ai/ha
  Plant response rating, Oat, Wild: 10
